From PubChem BioAssay AID1963853 (Molecular Pharmacology Branch, DTP, NCI, 2024)

Tested on: 266295-075-R-J1-PDC spheroid viability
Test: Anticancer human tumor 266295-075-R-J1-PDC patient-derived head and neck squamous carcinoma cell line growth inhibition [POLQ]
Details: spheroids with HUVEC and MSC; for IC50: curve of first compound; for viability, T/C: stronger effect = lower value; active = viability on the fitted dose curve at most 10% of control; inactive = the rest
Outline: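 Complex spheroid viability model combining PDC tumour cells with endothelial (HUVEC) and MSC stromal cells. Novobiocin, ART-558 or RP6685 were tested singly and in combination with standard and investigational anticancer drugs. Each was titrated in half-log steps from near clinical Cmax, or from 10 microM where Cmax was unknown.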

[1] = second compound 0.0316 µM, first compound 0.0316 µM
[2] = second compound 0.0316 µM, first compound 0.1 µM
[3] = second compound 0.0316 µM, first compound 0.316 µM
[4] = second compound 0.0316 µM, first compound 1 µM
[5] = second compound 0.0316 µM, first compound 3.16 µM
[6] = second compound 0.0316 µM, first compound 10 µM
[7] = second compound 0.1 µM, first compound 0.0316 µM
[8] = second compound 0.1 µM, first compound 0.1 µM
[9] = second compound 0.1 µM, first compound 0.316 µM
[10] = second compound 0.1 µM, first compound 1 µM
[11] = second compound 0.1 µM, first compound 3.16 µM
[12] = second compound 0.1 µM, first compound 10 µM
[13] = second compound 0.316 µM, first compound 0.0316 µM
[14] = second compound 0.316 µM, first compound 0.1 µM
[15] = second compound 0.316 µM, first compound 0.316 µM
[16] = second compound 0.316 µM, first compound 1 µM
[17] = second compound 0.316 µM, first compound 3.16 µM
[18] = second compound 0.316 µM, first compound 10 µM
[19] = second compound 1 µM, first compound 0.0316 µM
[20] = second compound 1 µM, first compound 0.1 µM
[21] = second compound 1 µM, first compound 0.316 µM
[22] = second compound 1 µM, first compound 1 µM
[23] = second compound 1 µM, first compound 3.16 µM
[24] = second compound 1 µM, first compound 10 µM
[25] = second compound 3.16 µM, first compound 0.0316 µM
[26] = second compound 3.16 µM, first compound 0.1 µM
[27] = second compound 3.16 µM, first compound 0.316 µM
[28] = second compound 3.16 µM, first compound 1 µM
[29] = second compound 3.16 µM, first compound 3.16 µM
[30] = second compound 3.16 µM, first compound 10 µM
[31] = second compound 10 µM, first compound 0.0316 µM
[32] = second compound 10 µM, first compound 0.1 µM
[33] = second compound 10 µM, first compound 0.316 µM
[34] = second compound 10 µM, first compound 1 µM
[35] = second compound 10 µM, first compound 3.16 µM
[36] = second compound 10 µM, first compound 10 µM
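Also: spheroids exposed to compounds for seven days before readout.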

O=c1[nH]cc(F)c(=O)[nH]1 + Nc1ccc(C#CCN(C(=O)Cc2ncc(C(F)(F)F)cc2C(F)(F)F)c2ccc(F)cc2)nn1
inactive: viability, T/C [1] 107% | viability, T/C [2] 101% | viability, T/C [3] 104% | viability, T/C [4] 109% | viability, T/C [5] 102% | viability, T/C [6] 99.5% | viability, T/C [7] 85.5% | viability, T/C [8] 116% | viability, T/C [9] 84.7% | viability, T/C [10] 98% | viability, T/C [11] 109% | viability, T/C [12] 80.2% | viability, T/C [13] 102% | viability, T/C [14] 96.5% | viability, T/C [15] 83% | viability, T/C [16] 89.6% | viability, T/C [17] 108% | viability, T/C [18] 76% | viability, T/C [19] 105% | viability, T/C [20] 85.7% | viability, T/C [21] 95.6% | viability, T/C [22] 120% | viability, T/C [23] 86% | viability, T/C [24] 79.8% | viability, T/C [25] 99.9% | viability, T/C [26] 131% | viability, T/C [27] 101% | viability, T/C [28] 89.3% | viability, T/C [29] 99.1% | viability, T/C [30] 86.9% | viability, T/C [31] 113% | viability, T/C [32] 103% | viability, T/C [33] 95.8% | viability, T/C [34] 96.3% | viability, T/C [35] 88% | viability, T/C [36] 87.1%
> 10000 nM: IC50 (second compound 0.0316 µM) | IC50 (second compound 0.1 µM) | IC50 (second compound 0.316 µM) | IC50 (second compound 1 µM) | IC50 (second compound 3.16 µM) | IC50 (second compound 10 µM)

CC1COCCN1c1cc(C2(O)CC3CCC(C2)O3)c2cnn(-c3ccn[nH]3)c2n1 (stereo not drawn) + Cc1cccc(N(C)C(=O)C2C(O)CCN2c2nc(C)cc(C(F)(F)F)c2C#N)c1
970 nM: IC50 (second compound 10 µM)
inactive: viability, T/C [1] 84% | viability, T/C [2] 74.1% | viability, T/C [3] 61.3% | viability, T/C [4] 47% | viability, T/C [5] 36.8% | viability, T/C [6] 25% | viability, T/C [7] 86% | viability, T/C [8] 69.1% | viability, T/C [9] 76.2% | viability, T/C [10] 46% | viability, T/C [11] 37.5% | viability, T/C [12] 29.7% | viability, T/C [13] 82.1% | viability, T/C [14] 74.1% | viability, T/C [15] 60.6% | viability, T/C [16] 49% | viability, T/C [17] 37.6% | viability, T/C [18] 26.3% | viability, T/C [19] 94.1% | viability, T/C [20] 63.6% | viability, T/C [21] 58.4% | viability, T/C [22] 45.9% | viability, T/C [23] 40% | viability, T/C [24] 26.1% | viability, T/C [25] 89.5% | viability, T/C [26] 74% | viability, T/C [27] 60.3% | viability, T/C [28] 51.5% | viability, T/C [29] 34.5% | viability, T/C [30] 31.1% | viability, T/C [31] 114% | viability, T/C [32] 88.8% | viability, T/C [33] 69.1% | viability, T/C [34] 49.4% | viability, T/C [35] 35.2% | viability, T/C [36] 28.1%
568 nM: IC50 (second compound 1 µM)
920 nM: IC50 (second compound 0.316 µM)
872 nM: IC50 (second compound 0.1 µM)
860 nM: IC50 (second compound 3.16 µM)
839 nM: IC50 (second compound 0.0316 µM)

O=C(c1cc(Cc2n[nH]c(=O)c3ccccc23)ccc1F)N1CCN(C(=O)C2CC2)CC1 + Nc1ccc(C#CCN(C(=O)Cc2ncc(C(F)(F)F)cc2C(F)(F)F)c2ccc(F)cc2)nn1
> 10000 nM: IC50 (second compound 0.0316 µM) | IC50 (second compound 0.1 µM) | IC50 (second compound 0.316 µM) | IC50 (second compound 1 µM) | IC50 (second compound 3.16 µM) | IC50 (second compound 10 µM)
inactive: viability, T/C [1] 105% | viability, T/C [2] 103% | viability, T/C [3] 115% | viability, T/C [4] 94.1% | viability, T/C [5] 108% | viability, T/C [6] 89% | viability, T/C [7] 96.6% | viability, T/C [8] 88.2% | viability, T/C [9] 97.6% | viability, T/C [10] 92.9% | viability, T/C [11] 105% | viability, T/C [12] 89.5% | viability, T/C [13] 124% | viability, T/C [14] 92.8% | viability, T/C [15] 77.1% | viability, T/C [16] 100% | viability, T/C [17] 80.6% | viability, T/C [18] 99.4% | viability, T/C [19] 90.1% | viability, T/C [20] 106% | viability, T/C [21] 91.9% | viability, T/C [22] 97.7% | viability, T/C [23] 85.7% | viability, T/C [24] 87% | viability, T/C [25] 92.7% | viability, T/C [26] 83.9% | viability, T/C [27] 91% | viability, T/C [28] 106% | viability, T/C [29] 106% | viability, T/C [30] 98.4% | viability, T/C [31] 110% | viability, T/C [32] 99.7% | viability, T/C [33] 96.3% | viability, T/C [34] 97.7% | viability, T/C [35] 77% | viability, T/C [36] 81.8%

C=CCn1c(=O)c2cnc(Nc3ccc(N4CCN(C)CC4)cc3)nc2n1-c1cccc(C(C)(C)O)n1 + COC1C(OC(N)=O)C(O)C(Oc2ccc3c(O)c(NC(=O)c4ccc(O)c(CC=C(C)C)c4)c(=O)oc3c2C)OC1(C)C
> 1000 nM: IC50 (second compound 0.0316 µM) | IC50 (second compound 0.1 µM) | IC50 (second compound 0.316 µM) | IC50 (second compound 1 µM) | IC50 (second compound 3.16 µM) | IC50 (second compound 10 µM)
inactive: viability, T/C (second compound 0.0316 µM, first compound 0.00316 µM) 106% | viability, T/C (second compound 0.0316 µM, first compound 0.01 µM) 111% | viability, T/C [1] 103% | viability, T/C [2] 102% | viability, T/C [3] 91.4% | viability, T/C [4] 65.5% | viability, T/C (second compound 0.1 µM, first compound 0.00316 µM) 112% | viability, T/C (second compound 0.1 µM, first compound 0.01 µM) 94.6% | viability, T/C [7] 82.5% | viability, T/C [8] 82.7% | viability, T/C [9] 77.2% | viability, T/C [10] 95.6% | viability, T/C (second compound 0.316 µM, first compound 0.00316 µM) 102% | viability, T/C (second compound 0.316 µM, first compound 0.01 µM) 93.8% | viability, T/C [13] 95% | viability, T/C [14] 104% | viability, T/C [15] 87.4% | viability, T/C [16] 70.6% | viability, T/C (second compound 1 µM, first compound 0.00316 µM) 97.1% | viability, T/C (second compound 1 µM, first compound 0.01 µM) 85.9% | viability, T/C [19] 92% | viability, T/C [20] 95.8% | viability, T/C [21] 91.3% | viability, T/C [22] 66.3% | viability, T/C (second compound 3.16 µM, first compound 0.00316 µM) 96% | viability, T/C (second compound 3.16 µM, first compound 0.01 µM) 90.8% | viability, T/C [25] 96.7% | viability, T/C [26] 98.3% | viability, T/C [27] 88.6% | viability, T/C [28] 65.3% | viability, T/C (second compound 10 µM, first compound 0.00316 µM) 104% | viability, T/C (second compound 10 µM, first compound 0.01 µM) 88.9% | viability, T/C [31] 102% | viability, T/C [32] 87.2% | viability, T/C [33] 87% | viability, T/C [34] 73.4%
